In publication PMC6128562, “Evaluation of cytotoxicity features of antimicrobial peptides with potential to control bacterial diseases of citrus” (PLoS ONE, 2018):
Where no end group is shown, it is not given here.

Key:
human erythrocytes = settings: cited from earlier work
Excerpt: Ocellatin4 ([…]-NH(2)) is a cytolytic peptide obtained from skin secretion of the South American frog Leptodactylus ocellatus. The analogue of this peptide named as, Ocellatin4-analogue ([…]) has positive charge at its N-terminus (lysine residue), similarly to K^0-W^6-Hy-a1.

[1] = test system: Galleria mellonella larvae; assay: Toxicity in Galleria mellonella larvae; assay type: in vivo; settings: for Median (%survival): over Experiments 1 and 2; for survival percentages of larvae: at 64 and 128 μM
Protocol: The peptides citrus–amp1 and citrus–amp2 were selected for toxicity assay in G. mellonella. Larvae with 0.15 to 0.20 g were randomly selected for the experiments and were kept without food in Petri plates at 37°C in the dark for 24 h prior to use. Each larva was injected with 10 μL of peptides at 64 and 128 μM into the last proleg using a Hamilton micro-syringe. […] The larvae were incubated at 37°C and survival was evaluated daily for 7 days. Group of 8–9 larvae was used to each concentration of peptides and 10 μL of PBS was injected in the control group. Two independent experiments were performed.

[2] = test system: Sinorhizobium meliloti SEMIA 165; assay type: cell-based; settings: ND = higher than the concentrations evaluated; for MIC S. meliloti: microplate, inoculum 10^4 CFU/mL in PBS, peptide 1–64 μM, 595 nm, three replicates; for MBC S. meliloti: serial dilution, microdrop technique, 28°C three days
Excerpt: (§1) Two important citrus pathogenic bacteria were addressed in our study: X.citri (isolate 306), the causal agent of citrus canker, and CaLas, causal agent of HLB. Since the latter cannot be cultivated in vitro, surrogates phylogenetically related to CaLas were used in the assays. The surrogates chosen were S. meliloti SEMIA 165 (= USDA 1002) and A. tumefaciens (GV3101/PMP90), provided by FEPAGRO (Fundação Estadual de Pesquisa Agropecuária) and by Dr. Janete Desidério, UNESP (Universidade Estadual Paulista, Jaboticabal, São Paulo, Brazil). The effect of the AMPs on Methylobacterium sp., an endophytic commonly found at citrus in Brazil and kindly provided by Dr. Wellington Luiz Araújo, Instituto de Ciências Biomédicas, Universidade de São Paulo, Brazil, was also assessed. Methylobacterium sp. and X.citri was cultured in NBY solid medium and then in NBY liquid medium according to Amaral et al. for 48 hours at 28°C and 180 rpm. S. meliloti and A. tumefaciens were grown in YM medium (Yeast Mannitol Medium) (0.5 g/L KH2PO4, 0.2 g/L MgSO4 7.H2O, 0.1g/L NaCl, 10 g/L mannitol, 0.5 g/L yeast extract, 9g/L agar, pH 6.8) and then in YM liquid medium for 48 hours at 28°C and 180 rpm. In addition to the in vitro assays, X.citri::GFP [35], obtained from Dr. Adrián A. Vojnov (Instituto de Ciencia y Tecnología Dr. Cesar Milstein, Fundación Pablo Cassará, Consejo Nacional de Investigaciones Científicas y Técnicas (CONICET), Buenos Aires / Argentina), was used for the in vivo assays.
(§2) Antimicrobial peptide activity was performed in vitro using a microliter plate assay (96 well cell culture cluster—Costar®3599). Fifty microliters of inoculum at 10^4 CFU/mL prepared in PBS buffer (Phosphate buffered saline) was mixed with 50 μL of the peptide diluted in distilled water filter sterilized (dH2O). The final concentration of peptide evaluated ranged from 1–64 μM, and hylin-a1 and PBS were used as positive and negative control for AMP, respectively. […] Three replicates were prepared for each concentration evaluated.
(§3) At the end of the growth incubation, minimum bactericidal concentration (MBC) for each organism was determined by serial dilution using the microdrop technique, as described elsewhere. The Petri dishes were maintained at 28°C for three days to obtain CFU/mL.

[3] = test system: Xanthomonas citri subsp. citri (X.citri, isolate 306); assay type: cell-based; settings: ND = higher than the concentrations evaluated
Excerpt: as §1, §2, §3

Methylobacterium sp. = assay type: cell-based; settings: ND = higher than the concentrations evaluated
Excerpt: as §1, §2, §3

U87 MG cells = assay: Cytotoxicity in U87 MG cells (alamarBlue); assay type: cell-based, human; settings: concentrations of 1–128 μM, 24 h
Protocol: U87 MG, a human Glioblastoma cell line frequently used as a model for cytotoxicity evaluation was adopted in our study for the peptides citrus–amp1 and citrus–amp2. Cells were plated in 96 wells plate (5x10^4 cells per well), incubated overnight and maintained in a humidified atmosphere at 37°C and 5% CO2. After the incubation period, cells were treated with peptides varying from 1μM to 128 μM and then incubated for 24h. Untreated and cells treated with DMSO (dimethyl sulfoxide) were used as positive and negative control for the viability of U87 MG cells. Six replicates were done by each concentration.
Cytotoxicity was performed using alamarBlue® cell viability reagent, a cell health indicator, through the reduction of […] of living cells. Viable cells convert Resazurin (blue) to resorufin, a compound that emits red fluorescent light. Alamar Blue medium was prepared by mixing medium with alamarBlue solution (Thermo Ficher Scientific) in a ratio of 10:1. After treatment with the peptides for 24 h, the medium was discarded, and Alamar Blue medium (100 μL) was transferred to a 96-well microplate. The microplates were incubated with Alamar Blue at 37°C for 4 h, and absorbance was measured using Epoch2 Microplate Reader (Biotek) in 570 nm. Cell viability was calculated using the ratio of the absorbance between treated and untreated cells and the data were expressed as percentages. […]

tobacco leaves = settings: 24 hpi; leaves started to dry out 12 hpi; cited from earlier work
Protocol: The peptide Hylin-1 and PBS buffer were used as positive and negative controls of the phytotoxicity assay, respectively. At seven days post inoculation (7 dpi), visual evaluation was performed in detached leaves. […] Makovitzki et al. assessed the toxicity of peptide C14-KLLK in tobacco leaves.

[4] = 64 µM, Experiment 1, 7 days, n=8–9 larvae
[5] = 64 µM, Experiment 2, 7 days, n=8–9 larvae
[6] = 128 µM, Experiment 1, 7 days, n=8–9 larvae
[7] = 128 µM, Experiment 2, 7 days, n=8–9 larvae
[8] = 10 μL of 64 μM injected, 37°C, 7 days, mean±SD of two experiments, 8–9 larvae
[9] = 10 μL of 128 μM injected, 37°C, 7 days, mean±SD of two experiments, 8–9 larvae
[10] = microplate, inoculum 10^4 CFU/mL in PBS, peptide 1–64 μM, 595 nm, three replicates
[11] = serial dilution, microdrop technique, 28°C three days

Substance | % survival [1, 4] [%] | % survival [1, 5] [%] | Median (%survival) ([1]; 64 µM) [%] | % survival [1, 6] [%] | % survival [1, 7] [%] | Median (%survival) ([1]; 128 µM) [%] | % survival [1, 8] [%] | % survival [1, 9] [%] | survival percentages of larvae [1] [%] | MIC S. meliloti [2] [µM] | MBC S. meliloti [2] [µM] | other results
GLLDFVTGVGKDIFAQLIKQI-NH(2) [ocellatin 4, cytolytic peptide from skin secretion of the frog Leptodactylus ocellatus] | – | – | – | – | – | – | – | – | – | – | – | activity on human erythrocytes at (human erythrocytes): 14.3 mmol/L
IETFLKQLRSAANKIVGL [Citrus-amp1] | 88.9 | 88.9 | 88.9 | 100 | 88.9 | 94.5 | 88.89 ± 0 | 94.50 ± 7.85 | > 87 | – | – | –
KIFGAIWPLALGALKNLIK [K^0-W^6-Hy-a1] | – | – | – | – | – | – | – | – | – | 4 | 62 | MIC X.ciri [3, 10]: 2 µM; MBC X.ciri [3, 11]: 2 µM; MIC Met sp. (Methylobacterium sp.; [10]): 4 µM; MBC Met sp. (Methylobacterium sp.; [11]): 8 µM
LESLASSAVRTANKARAKL [Citrus-amp2] | 100 | 75 | 87.5 | 100 | 87.5 | 93.8 | 87.50 ± 17.68 | 93.75 ± 8.84 | > 87 | 64 | 64 | viability percentages of cells (U87 MG cells): > 70%
mellittin | – | – | – | – | – | – | – | – | – | – | – | toxicity in tobacco leaves at the inoculation point (tobacco leaves): necrosis
